Values of other authors in US20040265272A1, “Mammalian cell-infecting virus vector encoding epitope-bound beta2m and utilization thereof” (priority 2001, published 2004).

System: CTL
Settings: HLA-A24- or HLA-A26-restricted peptide; cancer patients

Substance | CTL induction
SART-1 690-698: HLA-A24-restricted peptide of the SART-1 antigen (EYRGFTQDF; UniProt O43290 690-698, looked up, fragment) | strongly induced CTL
SART-1 736-744: HLA-A26-restricted peptide of the SART-1 antigen (KGSGKMKTE; UniProt O43290 736-744, looked up, fragment) | induced CTL in cancer patients with HLA-A2601, -A2602, or -A2603
